The text below walks through data of PubChem BioAssay (NCI).

Some test systems named below: COLO 205 colon; CCRF-CEM leukemia; U251 CNS; T-47D breast; SW-620 colon; HOP-92 NSCLC; HCT-116 colon; OVCAR-5 ovarian; DU-145 prostate; SK-MEL-5 melanoma; MOLT-4 leukemia; SF-295 CNS; HS 578T breast; HCT-15 colon.
Assay in all cases: inhibition of tumour cell growth, NCI panel, 48 h

The structures appear in SMILES notation.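 1) Cells in 96-well plates. 2) Compound, 48 h, 5 concentrations. 3) Linear interpolation between surrounding doses. 4) Unreached endpoint = highest concentration. TGI: concentration producing complete growth inhibition.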

As to `COCOC1/C=C/CCCCC2=C(C)C=C(C1)O2` (configuration not stated), the TGI with COLO 205 colon, in the assay with CCRF-CEM leukemia, in the assay on U251 CNS, with T-47D breast, with SW-620 colon and in the assay on HOP-92 NSCLC was over 100 µM throughout. Further, the TGI in the assay with HCT-116 colon, with OVCAR-5 ovarian, in the assay on DU-145 prostate, in the assay with SK-MEL-5 melanoma, with MOLT-4 leukemia and in the assay on SF-295 CNS was over 100 µM throughout. Besides, the TGI in the assay with HS 578T breast and in the assay on HCT-15 colon was over 100 µM throughout.

For the compound `COc1cccc2c(N)c3cccc(C(=O)NCCN(C)C)c3nc12`, the TGI in the assay on COLO 205 colon was determined as 0.592 µM; in the assay with CCRF-CEM leukemia, 0.288 µM; in the assay on U251 CNS, 1.57 µM; with T-47D breast it was 5.38 µM; with SW-620 colon it was 2.71 µM; in the assay on HOP-92 NSCLC, 1.3 µM. Moreover, the TGI in the assay with HCT-116 colon stood at 0.726 µM; in the assay on OVCAR-5 ovarian, 3.4 µM; in the assay on DU-145 prostate, 2.64 µM; in the assay with SK-MEL-5 melanoma, 2.08 µM; in the assay on MOLT-4 leukemia, 0.264 µM; in the assay with SF-295 CNS, 2.01 µM. For the same compound, the TGI with HS 578T breast came to 0.571 µM; with HCT-15 colon, 21.2 µM.

Turning to `CCCCN1C(=O)CC2[C@@H]3CCc4cc(OC(C)=O)ccc4C3CC[C@]2(C)C1=O` (some centres not stated), the TGI in the assay with COLO 205 colon, with CCRF-CEM leukemia, with U251 CNS, in the assay with T-47D breast, in the assay on SW-620 colon and in the assay with HOP-92 NSCLC was over 10 µM each time. The TGI with HCT-116 colon, with OVCAR-5 ovarian, in the assay on DU-145 prostate, with SK-MEL-5 melanoma, with MOLT-4 leukemia and in the assay on SF-295 CNS was over 10 µM each time. Besides, the TGI with HS 578T breast and in the assay on HCT-15 colon was over 10 µM in each case.

For the compound `CN1C(=O)N(c2ccccc2)C2(CCN(CC3COc4ccccc4O3)CC2)C1=O` (configuration not stated), the TGI in the assay on COLO 205 colon was over 100 µM; in the assay with CCRF-CEM leukemia, over 100 µM; with U251 CNS, over 100 µM; in the assay on T-47D breast it was over 100 µM; in the assay with SW-620 colon, 36.4 µM; in the assay with HOP-92 NSCLC, over 100 µM. In addition, the TGI with HCT-116 colon, in the assay with OVCAR-5 ovarian, in the assay on DU-145 prostate, in the assay on SK-MEL-5 melanoma, with MOLT-4 leukemia and in the assay on SF-295 CNS was over 100 µM each time. Besides, the TGI with HS 578T breast and in the assay on HCT-15 colon was over 100 µM each time.

In the case of `CC(O[Si](c1ccccc1)(c1ccccc1)C(C)(C)C)[C@H](NC(=O)OC(C)(C)C)C(=O)O[Si](c1ccccc1)(c1ccccc1)C(C)(C)C` (some centres not stated), the TGI in the assay on COLO 205 colon stood at 31.3 µM; in the assay on CCRF-CEM leukemia, 76.6 µM; with U251 CNS it was 31.7 µM; in the assay on T-47D breast, 25.7 µM; with SW-620 colon, 32.1 µM; with HOP-92 NSCLC, 23.2 µM. Further, the TGI is 23.7 µM with HCT-116 colon; 30.4 µM with OVCAR-5 ovarian; 25.6 µM with DU-145 prostate; 30.9 µM in the assay on SK-MEL-5 melanoma; 53.1 µM with MOLT-4 leukemia; 21.4 µM with SF-295 CNS. Besides, the TGI in the assay on HS 578T breast worked out at 44.4 µM; in the assay with HCT-15 colon, 18.8 µM.

Take `COC(=O)C1(C(=O)OC)CC2=C(S(=O)(=O)c3ccccc3)C[C@H](S(=O)(=O)c3ccccc3)[C@H]2C1`: the TGI with COLO 205 colon is over 100 µM; in the assay on CCRF-CEM leukemia, over 100 µM; with U251 CNS it was over 100 µM; with T-47D breast it was 92.6 µM; in the assay on SW-620 colon, over 100 µM; in the assay on HOP-92 NSCLC it was 55.9 µM. In addition, the TGI with HCT-116 colon, with OVCAR-5 ovarian, with DU-145 prostate, in the assay on SK-MEL-5 melanoma, in the assay with MOLT-4 leukemia and with SF-295 CNS was over 100 µM throughout. In addition, the TGI with HS 578T breast and in the assay on HCT-15 colon was over 100 µM in each case.

Consider `C=C1CC(COc2cc(=O)oc3ccccc23)(c2ccccc2)OC1=O` (configuration not stated), for which the TGI amounted to 3.1 µM with COLO 205 colon; 2.26 µM with CCRF-CEM leukemia; 25.3 µM with U251 CNS; 5.27 µM with T-47D breast; 3.35 µM with SW-620 colon; 2.34 µM in the assay with HOP-92 NSCLC. Also, the TGI in the assay with HCT-116 colon is 2.87 µM; in the assay with OVCAR-5 ovarian, 21.4 µM; with DU-145 prostate, 5.74 µM; in the assay on SK-MEL-5 melanoma it was 3.35 µM; with MOLT-4 leukemia it was over 20.8 µM; in the assay with SF-295 CNS it was 22.7 µM. Further, the TGI in the assay on HS 578T breast amounted to 27.5 µM; in the assay with HCT-15 colon, 3.78 µM.

`Cc1nnc2n1N=C(c1cc(F)c(Cl)cc1Cl)/C(=C/c1ccc(Cl)cc1)S2`: the TGI in the assay with COLO 205 colon is over 100 µM; in the assay with CCRF-CEM leukemia it was over 100 µM; in the assay with U251 CNS, 38.5 µM; with T-47D breast, over 100 µM; in the assay with SW-620 colon it was over 100 µM; with HOP-92 NSCLC it was 60.1 µM. In addition, the TGI is 21 µM in the assay on HCT-116 colon; 28 µM with OVCAR-5 ovarian; 48.6 µM in the assay on DU-145 prostate; 41.3 µM in the assay on SK-MEL-5 melanoma; over 100 µM in the assay on MOLT-4 leukemia; 35.5 µM with SF-295 CNS. Further, the TGI with HS 578T breast is over 100 µM; in the assay on HCT-15 colon, 35.2 µM.
